# Data: patent US12173322B2, “Genome-edited induced pluripotent stem cells, and cells derived therefrom, and uses thereof” (priority 2020, dated 2024)
# Like-named read-outs stand apart in the source and are kept apart here.
# What was measured:
# Assay type in all cases: cell-based
# hKv4.3/hKChIP2 = biological target: T1, hKv4.3/hKChIP2 (Homo sapiens, UniProt Q9UK17); assay: Patch clamp electrophysiology (QPatch CiPA), hKv4.3/hKChIP2; conditions: for IC50: Antagonist, read-out: Estimated IC50
# T1 construct: Eurofins
# T1 sequence (Q9UK17 1-655): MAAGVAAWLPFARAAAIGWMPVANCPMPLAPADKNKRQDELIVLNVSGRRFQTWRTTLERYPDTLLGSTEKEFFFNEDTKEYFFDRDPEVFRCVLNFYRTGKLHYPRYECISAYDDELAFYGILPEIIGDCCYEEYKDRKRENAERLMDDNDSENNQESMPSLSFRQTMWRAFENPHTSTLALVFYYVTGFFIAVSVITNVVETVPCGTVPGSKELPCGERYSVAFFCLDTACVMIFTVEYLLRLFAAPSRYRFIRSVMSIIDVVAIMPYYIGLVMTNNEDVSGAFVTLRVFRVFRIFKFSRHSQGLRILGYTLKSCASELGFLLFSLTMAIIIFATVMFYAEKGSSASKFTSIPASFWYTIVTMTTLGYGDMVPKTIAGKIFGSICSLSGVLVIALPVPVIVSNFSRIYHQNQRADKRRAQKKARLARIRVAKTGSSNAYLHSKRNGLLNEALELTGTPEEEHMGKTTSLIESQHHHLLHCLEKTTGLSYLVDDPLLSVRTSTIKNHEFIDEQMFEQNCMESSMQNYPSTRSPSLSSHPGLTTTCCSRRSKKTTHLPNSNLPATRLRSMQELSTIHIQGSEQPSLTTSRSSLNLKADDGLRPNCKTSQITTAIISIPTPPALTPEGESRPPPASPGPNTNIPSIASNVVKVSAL
# T1 sequence (Q9NS61 1-270 partner): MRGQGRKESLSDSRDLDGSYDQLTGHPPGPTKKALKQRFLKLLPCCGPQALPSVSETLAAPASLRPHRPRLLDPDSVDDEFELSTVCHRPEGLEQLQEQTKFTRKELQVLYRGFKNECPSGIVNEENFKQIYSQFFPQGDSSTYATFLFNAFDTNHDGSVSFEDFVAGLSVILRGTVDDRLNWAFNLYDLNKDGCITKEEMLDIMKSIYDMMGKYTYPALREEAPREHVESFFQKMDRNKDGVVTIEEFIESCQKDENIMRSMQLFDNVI
# hKir2.1 = biological target: T2, hKir2.1 (Homo sapiens, UniProt P63252); assay: Patch clamp electrophysiology (QPatch CiPA), hKir2.1; conditions: for IC50: Antagonist, read-out: Estimated IC50
# T2 construct: Eurofins
# T2 sequence (P63252 1-427): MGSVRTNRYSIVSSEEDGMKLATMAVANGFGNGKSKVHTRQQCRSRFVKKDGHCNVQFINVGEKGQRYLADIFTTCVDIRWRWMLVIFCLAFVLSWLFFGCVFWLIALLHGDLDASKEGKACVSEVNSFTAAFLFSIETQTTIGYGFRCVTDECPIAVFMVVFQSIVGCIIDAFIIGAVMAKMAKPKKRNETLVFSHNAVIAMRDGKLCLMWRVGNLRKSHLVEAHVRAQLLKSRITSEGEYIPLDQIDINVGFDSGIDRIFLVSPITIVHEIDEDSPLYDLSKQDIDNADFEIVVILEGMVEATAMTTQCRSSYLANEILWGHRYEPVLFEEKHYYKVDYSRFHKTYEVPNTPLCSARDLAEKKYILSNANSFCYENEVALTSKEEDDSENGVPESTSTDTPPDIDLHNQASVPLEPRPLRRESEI
# Method: Replated hiPSC-CMs were loaded with a fluorescent calcium dye and calcium transients were recorded before and after peptide addition.
# hNav1.5 = biological target: T3, hNav1.5 (Homo sapiens, UniProt Q14524); assay: Patch clamp electrophysiology (QPatch CiPA), hNav1.5
# T3 construct: Eurofins
# [1] = End, read-out: % inhibition mean
# [2] = Peak, read-out: % inhibition mean
# [3] = Peak, read-out: % inhibition n1
# [4] = Peak, read-out: % inhibition n2
# T3 sequence (Q14524 whole entry): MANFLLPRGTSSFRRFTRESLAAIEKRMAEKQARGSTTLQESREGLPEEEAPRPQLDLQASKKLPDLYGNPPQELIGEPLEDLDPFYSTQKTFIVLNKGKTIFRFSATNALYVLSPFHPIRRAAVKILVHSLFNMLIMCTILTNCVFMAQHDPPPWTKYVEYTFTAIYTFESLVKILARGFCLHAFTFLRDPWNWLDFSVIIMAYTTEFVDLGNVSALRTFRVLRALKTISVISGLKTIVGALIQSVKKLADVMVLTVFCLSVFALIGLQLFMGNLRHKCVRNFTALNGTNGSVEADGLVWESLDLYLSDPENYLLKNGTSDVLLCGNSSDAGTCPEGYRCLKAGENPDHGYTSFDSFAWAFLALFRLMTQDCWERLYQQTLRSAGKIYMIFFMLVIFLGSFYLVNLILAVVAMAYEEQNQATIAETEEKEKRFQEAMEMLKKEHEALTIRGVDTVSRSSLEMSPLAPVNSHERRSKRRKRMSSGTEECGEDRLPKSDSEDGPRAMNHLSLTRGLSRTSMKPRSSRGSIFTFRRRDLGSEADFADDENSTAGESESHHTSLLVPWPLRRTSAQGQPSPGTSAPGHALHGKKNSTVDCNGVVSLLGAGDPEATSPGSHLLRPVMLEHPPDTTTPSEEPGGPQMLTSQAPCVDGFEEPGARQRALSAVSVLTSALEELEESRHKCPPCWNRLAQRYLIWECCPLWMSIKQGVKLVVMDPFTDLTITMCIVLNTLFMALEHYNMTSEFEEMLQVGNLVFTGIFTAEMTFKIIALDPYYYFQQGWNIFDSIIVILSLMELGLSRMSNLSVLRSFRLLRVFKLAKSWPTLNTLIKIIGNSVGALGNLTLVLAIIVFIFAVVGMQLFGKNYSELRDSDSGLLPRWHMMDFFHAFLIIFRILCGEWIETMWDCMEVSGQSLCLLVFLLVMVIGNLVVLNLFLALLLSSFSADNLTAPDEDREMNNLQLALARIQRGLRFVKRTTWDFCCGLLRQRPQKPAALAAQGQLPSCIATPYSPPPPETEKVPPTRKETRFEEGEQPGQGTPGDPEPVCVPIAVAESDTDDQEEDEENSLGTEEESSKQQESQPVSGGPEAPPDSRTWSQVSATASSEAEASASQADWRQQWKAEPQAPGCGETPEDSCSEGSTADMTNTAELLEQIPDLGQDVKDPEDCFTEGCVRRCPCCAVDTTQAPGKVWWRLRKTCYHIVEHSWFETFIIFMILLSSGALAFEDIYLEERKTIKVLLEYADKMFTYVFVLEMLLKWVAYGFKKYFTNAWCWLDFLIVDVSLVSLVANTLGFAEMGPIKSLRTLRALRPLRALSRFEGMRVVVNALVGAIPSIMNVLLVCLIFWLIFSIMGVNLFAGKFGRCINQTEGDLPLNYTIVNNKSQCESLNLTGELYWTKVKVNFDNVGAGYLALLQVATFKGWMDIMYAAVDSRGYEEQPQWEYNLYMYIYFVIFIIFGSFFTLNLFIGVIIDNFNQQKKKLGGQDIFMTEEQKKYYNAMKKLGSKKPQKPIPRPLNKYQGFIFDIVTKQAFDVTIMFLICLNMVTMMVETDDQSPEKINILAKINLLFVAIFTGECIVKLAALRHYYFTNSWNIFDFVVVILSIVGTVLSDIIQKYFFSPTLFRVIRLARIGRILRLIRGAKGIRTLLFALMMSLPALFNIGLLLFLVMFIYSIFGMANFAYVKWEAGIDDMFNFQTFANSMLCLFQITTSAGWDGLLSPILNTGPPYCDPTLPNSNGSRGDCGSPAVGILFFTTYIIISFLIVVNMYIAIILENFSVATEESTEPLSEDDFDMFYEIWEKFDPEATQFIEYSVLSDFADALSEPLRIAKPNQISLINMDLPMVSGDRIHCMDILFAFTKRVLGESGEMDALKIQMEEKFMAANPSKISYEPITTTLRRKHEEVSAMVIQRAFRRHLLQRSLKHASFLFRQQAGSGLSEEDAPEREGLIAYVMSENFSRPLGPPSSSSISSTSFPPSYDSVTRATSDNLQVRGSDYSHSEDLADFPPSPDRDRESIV
smiles,measurement,setting,value
O=C(NCC1CCCCN1)c1cc(OCC(F)(F)F)ccc1OCC(F)(F)F (stereo not shown) [Flecainide],IC50,hKv4.3/hKChIP2; End,10 µM
same,IC50,hKv4.3/hKChIP2; Peak,22.5 µM
same,inhibition at 0.03 µM,hKv4.3/hKChIP2; [1],6.93%
same,inhibition at 0.03 µM,"hKv4.3/hKChIP2; End, read-out: % inhibition n1",5.29%
same,inhibition at 0.03 µM,"hKv4.3/hKChIP2; End, read-out: % inhibition n2",8.57%
same,inhibition at 0.3 µM,hKv4.3/hKChIP2; [1],7.17%
same,inhibition at 0.3 µM,"hKv4.3/hKChIP2; End, read-out: % inhibition n1",2.84%
same,inhibition at 0.3 µM,"hKv4.3/hKChIP2; End, read-out: % inhibition n2",11.5%
same,inhibition at 3 µM,hKv4.3/hKChIP2; [1],26.8%
same,inhibition at 3 µM,"hKv4.3/hKChIP2; End, read-out: % inhibition n1",25.6%
same,inhibition at 3 µM,"hKv4.3/hKChIP2; End, read-out: % inhibition n2",27.9%
same,inhibition at 30 µM,hKv4.3/hKChIP2; [1],71.8%
same,inhibition at 30 µM,"hKv4.3/hKChIP2; End, read-out: % inhibition n1",69.2%
same,inhibition at 30 µM,"hKv4.3/hKChIP2; End, read-out: % inhibition n2",74.4%
same,inhibition at 300 µM,hKv4.3/hKChIP2; [1],90.5%
same,inhibition at 300 µM,"hKv4.3/hKChIP2; End, read-out: % inhibition n1",90%
same,inhibition at 300 µM,"hKv4.3/hKChIP2; End, read-out: % inhibition n2",91%
same,inhibition at 0.03 µM,hKv4.3/hKChIP2; [2],9.2%
same,inhibition at 0.03 µM,hKv4.3/hKChIP2; [3],7.41%
same,inhibition at 0.03 µM,hKv4.3/hKChIP2; [4],11%
same,inhibition at 0.3 µM,hKv4.3/hKChIP2; [2],8.4%
same,inhibition at 0.3 µM,hKv4.3/hKChIP2; [3],4.05%
same,inhibition at 0.3 µM,hKv4.3/hKChIP2; [4],12.8%
same,inhibition at 3 µM,hKv4.3/hKChIP2; [2],12.6%
same,inhibition at 3 µM,hKv4.3/hKChIP2; [3],10.6%
same,inhibition at 3 µM,hKv4.3/hKChIP2; [4],14.5%
same,inhibition at 30 µM,hKv4.3/hKChIP2; [2],55.2%
same,inhibition at 30 µM,hKv4.3/hKChIP2; [3],57.5%
same,inhibition at 30 µM,hKv4.3/hKChIP2; [4],53%
same,inhibition at 300 µM,hKv4.3/hKChIP2; [2],97.4%
same,inhibition at 300 µM,hKv4.3/hKChIP2; [3],97.4%
same,inhibition at 300 µM,hKv4.3/hKChIP2; [4],97.3%
"[Ba+2].[Cl-].[Cl-] [Barium, Barium Chloride]",IC50,hKir2.1; End,3.6 µM
same,IC50,hKir2.1; Peak,62.3 µM
same,% inhibition mean,"hKir2.1; End, 0.3 μM",7.01%
same,% inhibition n1,"hKir2.1; End, 0.3 μM",6.49%
same,% inhibition n2,"hKir2.1; End, 0.3 μM",7.53%
same,% inhibition mean,"hKir2.1; End, 1 μM",18.29%
same,% inhibition n1,"hKir2.1; End, 1 μM",19.93%
same,% inhibition n2,"hKir2.1; End, 1 μM",16.65%
same,% inhibition mean,"hKir2.1; End, 3 μM",41.38%
same,% inhibition n1,"hKir2.1; End, 3 μM",39.87%
same,% inhibition n2,"hKir2.1; End, 3 μM",42.88%
same,% inhibition mean,"hKir2.1; End, 10 μM",80.72%
same,% inhibition n1,"hKir2.1; End, 10 μM",79.79%
same,% inhibition n2,"hKir2.1; End, 10 μM",81.66%
same,% inhibition mean,"hKir2.1; End, 30 μM",93.28%
same,% inhibition n1,"hKir2.1; End, 30 μM",93.64%
same,% inhibition n2,"hKir2.1; End, 30 μM",92.93%
same,% inhibition mean,"hKir2.1; End, 100 μM",98.46%
same,% inhibition n1,"hKir2.1; End, 100 μM",98.46%
same,% inhibition n2,"hKir2.1; End, 100 μM",98.47%
same,% inhibition mean,"hKir2.1; Peak, 0.3 μM",2.37%
same,% inhibition n1,"hKir2.1; Peak, 0.3 μM",1.78%
same,% inhibition n2,"hKir2.1; Peak, 0.3 μM",2.96%
same,% inhibition mean,"hKir2.1; Peak, 1 μM",6.45%
same,% inhibition n1,"hKir2.1; Peak, 1 μM",7.99%
same,% inhibition n2,"hKir2.1; Peak, 1 μM",4.90%
same,% inhibition mean,"hKir2.1; Peak, 3 μM",12.57%
same,% inhibition n1,"hKir2.1; Peak, 3 μM",14.88%
same,% inhibition n2,"hKir2.1; Peak, 3 μM",10.25%
same,% inhibition mean,"hKir2.1; Peak, 10 μM",13.31%
same,% inhibition n1,"hKir2.1; Peak, 10 μM",16.68%
same,% inhibition n2,"hKir2.1; Peak, 10 μM",9.94%
same,% inhibition mean,"hKir2.1; Peak, 30 μM",31.99%
same,% inhibition n1,"hKir2.1; Peak, 30 μM",38.78%
same,% inhibition n2,"hKir2.1; Peak, 30 μM",25.19%
same,% inhibition mean,"hKir2.1; Peak, 100 μM",62.64%
same,% inhibition n1,"hKir2.1; Peak, 100 μM",63.60%
same,% inhibition n2,"hKir2.1; Peak, 100 μM",61.68%
CCCCNc1ccc(C(=O)OCCN(C)C)cc1 [Tetracaine],inhibition at 0.03 µM,hNav1.5; read-out: % inhibition mean,6.44%
same,inhibition at 0.03 µM,hNav1.5; read-out: % inhibition n1,6.26%
same,inhibition at 0.03 µM,hNav1.5; read-out: % inhibition n2,6.62%
same,inhibition at 0.3 µM,hNav1.5; read-out: % inhibition mean,27.2%
same,inhibition at 0.3 µM,hNav1.5; read-out: % inhibition n1,28.8%
same,inhibition at 0.3 µM,hNav1.5; read-out: % inhibition n2,25.6%
same,inhibition at 3 µM,hNav1.5; read-out: % inhibition mean,71.3%
same,inhibition at 3 µM,hNav1.5; read-out: % inhibition n1,74.2%
same,inhibition at 3 µM,hNav1.5; read-out: % inhibition n2,68.5%
same,inhibition at 30 µM,hNav1.5; read-out: % inhibition mean,91.3%
same,inhibition at 30 µM,hNav1.5; read-out: % inhibition n1,93.8%
same,inhibition at 30 µM,hNav1.5; read-out: % inhibition n2,88.8%
same,inhibition at 300 µM,hNav1.5; read-out: % inhibition mean,95.9%
same,inhibition at 300 µM,hNav1.5; read-out: % inhibition n1,96.6%
same,inhibition at 300 µM,hNav1.5; read-out: % inhibition n2,95.2%
